In assay [1] the target is human Factor XIa (Homo sapiens (Human), UniProt P03951). The assay can be described thus: Factor XIa Assay (fluorogenic substrate GPR-AFC). Format: biochemical. Conditions: Factor XIa (FXIa).
In assay [2] the target is Human plasma kallikrein (Homo sapiens (Human), UniProt P03952). The assay can be described thus: Kallikrein Assay (fluorogenic substrate Acetyl-K-P-R-AFC). Conditions: Plasma Kallikrein (PKal). Format: biochemical. The procedure, abridged:
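Ki is derived from IC50 with the Cheng-Prusoff equation, and IC50 from the inflection point of a four-parameter logistic curve. The rate of AFC release is read with 0.5 nM purified enzyme and […] substrate at room temperature or 37 °C.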

human Factor XIa, sequence (P03951 388-625 limits assumed): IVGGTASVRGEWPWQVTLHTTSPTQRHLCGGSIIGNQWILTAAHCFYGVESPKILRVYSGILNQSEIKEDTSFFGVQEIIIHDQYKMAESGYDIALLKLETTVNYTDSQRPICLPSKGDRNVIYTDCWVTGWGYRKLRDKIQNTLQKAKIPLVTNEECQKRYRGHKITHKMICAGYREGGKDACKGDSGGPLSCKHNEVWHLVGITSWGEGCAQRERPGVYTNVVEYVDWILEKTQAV
human Factor XIa, sequence (P03951 19-387 partner limits assumed): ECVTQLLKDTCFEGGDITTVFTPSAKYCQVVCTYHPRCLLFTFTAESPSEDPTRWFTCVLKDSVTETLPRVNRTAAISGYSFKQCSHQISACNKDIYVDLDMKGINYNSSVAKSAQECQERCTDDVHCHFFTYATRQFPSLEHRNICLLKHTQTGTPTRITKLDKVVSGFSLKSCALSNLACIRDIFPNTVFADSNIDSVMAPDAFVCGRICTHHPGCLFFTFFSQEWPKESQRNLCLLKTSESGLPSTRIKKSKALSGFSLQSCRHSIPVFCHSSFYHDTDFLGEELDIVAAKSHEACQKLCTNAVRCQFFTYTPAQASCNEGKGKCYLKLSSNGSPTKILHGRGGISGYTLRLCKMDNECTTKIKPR
Human plasma kallikrein, sequence (P03952 391-638): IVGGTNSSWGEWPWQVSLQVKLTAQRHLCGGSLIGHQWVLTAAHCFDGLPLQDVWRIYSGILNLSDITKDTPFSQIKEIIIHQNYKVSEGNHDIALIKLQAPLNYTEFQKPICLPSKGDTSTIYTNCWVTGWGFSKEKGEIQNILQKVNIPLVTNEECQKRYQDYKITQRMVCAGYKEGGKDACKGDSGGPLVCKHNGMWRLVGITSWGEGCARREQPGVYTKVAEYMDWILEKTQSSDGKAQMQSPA
Human plasma kallikrein, sequence (P03952 20-390 partner): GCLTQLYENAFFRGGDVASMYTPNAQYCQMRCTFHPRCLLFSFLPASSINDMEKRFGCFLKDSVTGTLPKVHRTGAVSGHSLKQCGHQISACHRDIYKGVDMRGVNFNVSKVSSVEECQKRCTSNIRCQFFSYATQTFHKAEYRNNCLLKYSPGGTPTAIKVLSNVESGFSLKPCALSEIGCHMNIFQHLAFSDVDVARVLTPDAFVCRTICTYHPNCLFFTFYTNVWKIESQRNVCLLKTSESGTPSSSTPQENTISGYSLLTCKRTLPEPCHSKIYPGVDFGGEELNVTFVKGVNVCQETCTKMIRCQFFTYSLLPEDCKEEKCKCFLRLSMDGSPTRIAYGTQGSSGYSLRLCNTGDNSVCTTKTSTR

In general, IC50 refers to the midpoint of a concentration-inhibition curve. Read a high IC50 as lower potency. With `Cc1cc(N2C[C@H]3C[C@H]3C2=O)nnc1Cn1cc(NC(=O)c2nc(-c3c(C(F)F)ccc(Cl)c3F)cnc2C)cn1` [Example 84, 6-(3-Chloro-6-(difluoromethyl)-2-fluorophenyl)-3-methyl-N-(1-((4-methyl-6-((1R,5S)-2-oxo-3-azabicyclo[3.1.0]hexan-3-yl)pyridazin-3-yl)methyl)-1H-pyrazol-4-yl)pyrazine-2-carboxamide], the IC50 was found to be 5710 nM in assay [1] and 20.7 nM in assay [2].
Turning to `COc1ncc(-c2c(OC(F)F)ccc(Cl)c2F)nc1C(=O)Nc1cnn(C(C)c2cnc(N3C[C@H]4C[C@H]4C3=O)c(C)n2)c1` (single isomer, unassigned) [Example 240, 6-(3-Chloro-6-(difluoromethoxy)-2-fluorophenyl)-3-methoxy-N-(1-((R or S)-1-(6-methyl-5-((1R,5S)-2-oxo-3-azabicyclo[3.1.0]hexan-3-yl)pyrazin-2-yl)ethyl)-1H-pyrazol-4-yl)pyrazine-2-carboxamide], the IC50 is 985 nM in assay [1] and 0.4 nM in assay [2].
On the same counts, the results for `Cc1cc(C(C)n2cc(NC(=O)c3nc(-c4c(C#N)ccc(Cl)c4F)cnc3C)cn2)nnc1N1C[C@H]2C[C@H]2C1=O` (single isomer, unassigned) [Example 237, 6-(3-Chloro-6-cyano-2-fluorophenyl)-3-methyl-N-(1-((S or R)-1-(5-methyl-6-((1R,5S)-2-oxo-3-azabicyclo[3.1.0]hexan-3-yl)pyridazin-3-yl)ethyl)-1H-pyrazol-4-yl)pyrazine-2-carboxamide] are 561 nM and 4.3 nM.
For `Cc1nc(C(C)n2cc(NC(=O)c3nc(-c4c(C(F)F)ccc(Cl)c4F)cnc3COC(C)(C)C)cn2)cnc1N1C[C@H]2C[C@H]2C1=O` (mixture of isomers) [Example 196, 3-(tert-Butoxymethyl)-6-(3-chloro-6-(difluoromethyl)-2-fluorophenyl)-N-(1-((S and R)-1-(6-methyl-5-((1R,5S)-2-oxo-3-azabicyclo[3.1.0]hexan-3-yl)pyrazin-2-yl)ethyl)-1H-pyrazol-4-yl)pyrazine-2-carboxamide] the same measures were 2090 nM and 0.9 nM.
On to `CC(c1cnc(N2C[C@H]3C[C@H]3C2=S)nc1)n1cc(NC(=O)c2cncc(-c3c(C(F)F)ccc(Cl)c3F)n2)cn1` (single isomer, unassigned) [Example 32, 6-(3-Chloro-6-(difluoromethyl)-2-fluorophenyl)-N-(1-((R or S)-1-(2-((1R,5S)-2-thioxo-3-azabicyclo[3.1.0]hexan-3-yl)pyrimidin-5-yl)ethyl)-1H-pyrazol-4-yl)pyrazine-2-carboxamide], for which the IC50 in assay [1] was greater than 10000 nM; in assay [2], 16.4 nM.
Regarding `Cc1ncc(-c2c(C(F)F)ccc(Cl)c2F)nc1C(=O)Nc1cnn(C(C)c2cnc(N3C[C@H]4C[C@H]4C3=O)nc2)c1` (single isomer, unassigned) [Example 30, 6-(3-Chloro-6-(difluoromethyl)-2-fluorophenyl)-3-methyl-N-(1-((R or S)-1-(2-((1R,5S)-2-oxo-3-azabicyclo[3.1.0]hexan-3-yl)pyrimidin-5-yl)ethyl)-1H-pyrazol-4-yl)pyrazine-2-carboxamide], the IC50 is 2830 nM in assay [1] and 1.8 nM in assay [2].
As to `COc1cc(C(C)n2cc(NC(=O)c3nc(-c4c(C(F)F)ccc(Cl)c4F)cnc3C)cn2)cnc1N1C[C@H]2C[C@H]2C1=O` (single isomer, unassigned) [Example 218, 6-(3-Chloro-6-(difluoromethyl)-2-fluorophenyl)-N(1-((S or R)-1-(5-methoxy-6-((1R,5S)-2-oxo-3-azabicyclo[3.1.0]hexan-3-yl)pyridin-3-yl)ethyl)-1H-pyrazol-4-yl)-3-methylpyrazine-2-carboxamide], the IC50 turned out to be 414 nM in assay [1] and 1.8 nM in assay [2].

The values above are taken from patent publication US20230286958A1, “PLASMA KALLIKREIN INHIBITORS” (Merck Sharp & Dohme LLC, priority 2020, published 2023).
